Source: PubChem BioAssay AID2060603 (Molecular Pharmacology Branch, DTP, NCI, 2025)
Where “and” joins values, the source holds several entries; their conditions need not be identical. Identical values can stand only once.

Test system: 422866-222-R5-J1-PDC spheroid viability
Assay: Anticancer human tumor 422866-222-R5-J1-PDC patient-derived pancreatic adenocarcinoma cell line growth inhibition [CLK]
Settings: spheroids with HUVEC and MSC; for viability, T/C: stronger effect = lower value
In short: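 Multi-cell-type spheroids combined patient-derived tumor cells with HUVEC endothelial cells and human mesenchymal stem cells. Paired agents were dosed in half-log steps down from about clinical Cmax, or from 10 microM where Cmax was unknown.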

[1] = curve of first compound, second compound 0.0316 µM
[2] = curve of first compound, second compound 0.1 µM
[3] = curve of first compound, second compound 0.316 µM
[4] = curve of first compound, second compound 1 µM
[5] = curve of first compound, second compound 3.16 µM
[6] = curve of first compound, second compound 10 µM
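Also: spheroids exposed to agents for seven days before readout.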

Compound `CC(CO)NC(=O)c1cc(-c2ccc(Cl)cc2)nn(-c2cnn(C)c2)c1=O` (stereo unspecified) + CNC(=O)c1ccc(Nc2nc(OC3CCCC3)c3c(-c4ccc5nc(C)oc5c4)c[nH]c3n2)c(OC)c1 has an IC50 [1] of over 10 µM, an IC50 [2] of over 10 µM and an IC50 [3] of over 10 µM. It also gave an IC50 [4] of over 10 µM, an IC50 [5] of over 10 µM and an IC50 [6] of over 10 µM. It also gave a viability, T/C (second compound 0.0316 µM, first compound 0.0316 µM) of 91%, a viability, T/C (second compound 0.0316 µM, first compound 0.1 µM) of 112% and a viability, T/C (second compound 0.0316 µM, first compound 0.316 µM) of 112%. It also gave a viability, T/C (second compound 0.0316 µM, first compound 1 µM) of 114%, a viability, T/C (second compound 0.0316 µM, first compound 3.16 µM) of 77.2% and a viability, T/C (second compound 0.0316 µM, first compound 10 µM) of 81.7%. It also gave a viability, T/C (second compound 0.1 µM, first compound 0.0316 µM) of 113%, a viability, T/C (second compound 0.1 µM, first compound 0.1 µM) of 97.3% and a viability, T/C (second compound 0.1 µM, first compound 0.316 µM) of 109%. For the same compound, the viability, T/C (second compound 0.1 µM, first compound 1 µM) was 98.9%, the viability, T/C (second compound 0.1 µM, first compound 3.16 µM) was 74.9% and the viability, T/C (second compound 0.1 µM, first compound 10 µM) was 78.1%. It also gave a viability, T/C (second compound 0.316 µM, first compound 0.0316 µM) of 73.2%, a viability, T/C (second compound 0.316 µM, first compound 0.1 µM) of 73.8% and a viability, T/C (second compound 0.316 µM, first compound 0.316 µM) of 72.6%. For the same compound, the viability, T/C (second compound 0.316 µM, first compound 1 µM) was 73.5%, the viability, T/C (second compound 0.316 µM, first compound 3.16 µM) was 72.2% and the viability, T/C (second compound 0.316 µM, first compound 10 µM) was 66.8%. For the same compound, the viability, T/C (second compound 1 µM, first compound 0.0316 µM) was 74.8%, the viability, T/C (second compound 1 µM, first compound 0.1 µM) was 64.2% and the viability, T/C (second compound 1 µM, first compound 0.316 µM) was 66.2%. It also gave a viability, T/C (second compound 1 µM, first compound 1 µM) of 55.1%, a viability, T/C (second compound 1 µM, first compound 3.16 µM) of 57.5% and a viability, T/C (second compound 1 µM, first compound 10 µM) of 61.8%. For the same compound, the viability, T/C (second compound 3.16 µM, first compound 0.0316 µM) was 56.3%, the viability, T/C (second compound 3.16 µM, first compound 0.1 µM) was 60.8% and the viability, T/C (second compound 3.16 µM, first compound 0.316 µM) was 57.2%. For the same compound, the viability, T/C (second compound 3.16 µM, first compound 1 µM) was 61.8%, the viability, T/C (second compound 3.16 µM, first compound 3.16 µM) was 51.5% and the viability, T/C (second compound 3.16 µM, first compound 10 µM) was 50.2%. It also gave a viability, T/C (second compound 10 µM, first compound 0.0316 µM) of 55.6%, a viability, T/C (second compound 10 µM, first compound 0.1 µM) of 63.4% and a viability, T/C (second compound 10 µM, first compound 0.316 µM) of 67%. For the same compound, the viability, T/C (second compound 10 µM, first compound 1 µM) was 60.4%, the viability, T/C (second compound 10 µM, first compound 3.16 µM) was 60.9% and the viability, T/C (second compound 10 µM, first compound 10 µM) was 56.4%.

`NC(=O)C(=Cn1cnc(-c2cc(C(F)(F)F)cc(C(F)(F)F)c2)n1)c1cncnc1` + CNC(=O)c1ccc(Nc2nc(OC3CCCC3)c3c(-c4ccc5nc(C)oc5c4)c[nH]c3n2)c(OC)c1 showed an IC50 [1] of over 3 µM, an IC50 [2] of over 3 µM and an IC50 [3] of 0.279 µM. For the same compound, the IC50 [4] was 0.0554 µM, the IC50 [5] was 0.037 µM and the IC50 [6] was 0.0552 µM. It also gave a viability, T/C (second compound 0.0316 µM, first compound 0.00949 µM) of 98.7%, a viability, T/C (second compound 0.0316 µM, first compound 0.03 µM) of 107% and a viability, T/C (second compound 0.0316 µM, first compound 0.0949 µM) of 95.1%. The viability, T/C (second compound 0.0316 µM, first compound 0.3 µM) was 47.6%, the viability, T/C (second compound 0.0316 µM, first compound 0.949 µM) was 75.6% and the viability, T/C (second compound 0.0316 µM, first compound 3 µM) was 76.5%. For the same compound, the viability, T/C (second compound 0.1 µM, first compound 0.00949 µM) was 98.5%, the viability, T/C (second compound 0.1 µM, first compound 0.03 µM) was 115% and the viability, T/C (second compound 0.1 µM, first compound 0.0949 µM) was 66.6%. The viability, T/C (second compound 0.1 µM, first compound 0.3 µM) was 46.2%, the viability, T/C (second compound 0.1 µM, first compound 0.949 µM) was 47.5% and the viability, T/C (second compound 0.1 µM, first compound 3 µM) was 67.5%. It also gave a viability, T/C (second compound 0.316 µM, first compound 0.00949 µM) of 86.1%, a viability, T/C (second compound 0.316 µM, first compound 0.03 µM) of 87.6% and a viability, T/C (second compound 0.316 µM, first compound 0.0949 µM) of 56.8%. It also gave a viability, T/C (second compound 0.316 µM, first compound 0.3 µM) of 31.4%, a viability, T/C (second compound 0.316 µM, first compound 0.949 µM) of 45.4% and a viability, T/C (second compound 0.316 µM, first compound 3 µM) of 71.8%. For the same compound, the viability, T/C (second compound 1 µM, first compound 0.00949 µM) was 52%, the viability, T/C (second compound 1 µM, first compound 0.03 µM) was 69.5% and the viability, T/C (second compound 1 µM, first compound 0.0949 µM) was 40.6%. For the same compound, the viability, T/C (second compound 1 µM, first compound 0.3 µM) was 21.7%, the viability, T/C (second compound 1 µM, first compound 0.949 µM) was 32.3% and the viability, T/C (second compound 1 µM, first compound 3 µM) was 54.9%. The viability, T/C (second compound 3.16 µM, first compound 0.00949 µM) was 45.7%, the viability, T/C (second compound 3.16 µM, first compound 0.03 µM) was 60.2% and the viability, T/C (second compound 3.16 µM, first compound 0.0949 µM) was 37.3%. It also gave a viability, T/C (second compound 3.16 µM, first compound 0.3 µM) of 21.3%, a viability, T/C (second compound 3.16 µM, first compound 0.949 µM) of 29.5% and a viability, T/C (second compound 3.16 µM, first compound 3 µM) of 48.2%. For the same compound, the viability, T/C (second compound 10 µM, first compound 0.00949 µM) was 55.1%, the viability, T/C (second compound 10 µM, first compound 0.03 µM) was 65.4% and the viability, T/C (second compound 10 µM, first compound 0.0949 µM) was 40.9%. It also gave a viability, T/C (second compound 10 µM, first compound 0.3 µM) of 27.9%, a viability, T/C (second compound 10 µM, first compound 0.949 µM) of 37.2% and a viability, T/C (second compound 10 µM, first compound 3 µM) of 49.3%.

`CCN1CCN(Cc2ccc(Nc3ncc(F)c(-c4cc(F)c5nc(C)n(C(C)C)c5c4)n3)nc2)CC1` was tested, and the viability, T/C (compound 0.00316 µM) was 99.5% and 74%, the viability, T/C (compound 0.01 µM) was 84% and 78.8% and the viability, T/C (compound 0.0316 µM) was 87% and 73.9%. For the same compound, the viability, T/C (compound 0.1 µM) was 82.6% and 59.1%, the viability, T/C (compound 0.316 µM) was 80.8% and 66.4% and the viability, T/C (compound 1 µM) was 98.7% and 90.2%. The IC50 (curve of compound) was over 1 µM.
